In general, inhibition refers to the percentage by which the read-out fell short of the control. As a reminder, the IC50 is the concentration that inhibits the measured activity by half.

This test has as its target T1, human recombinant renin (Homo sapiens, UniProt P00797).
T1 construct: purchased Cayman 10006270
T1 sequence (P00797 67-406): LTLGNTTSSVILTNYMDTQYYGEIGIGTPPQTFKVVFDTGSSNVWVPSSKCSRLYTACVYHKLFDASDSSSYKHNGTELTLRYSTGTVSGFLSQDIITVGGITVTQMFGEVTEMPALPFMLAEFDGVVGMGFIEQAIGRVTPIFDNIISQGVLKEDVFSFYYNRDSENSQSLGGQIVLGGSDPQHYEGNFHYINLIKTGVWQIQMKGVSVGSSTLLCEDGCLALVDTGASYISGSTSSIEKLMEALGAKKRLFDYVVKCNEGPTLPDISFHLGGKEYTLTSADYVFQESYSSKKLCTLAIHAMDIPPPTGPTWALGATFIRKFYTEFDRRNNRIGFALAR
The experiment in a line: Inhibition of human recombinant renin (modified Cayman renin inhibitor screening assay, fluorescence). The test is classed as biochemical. To be noted: for Renin inhibition (percent inhibition of renin activity) at 0.01 μM / inhibition at 0.01 µM: 0.01 μM compound; for Renin inhibition (percent inhibition of renin activity) at 0.01 μM / Renin inhibition (percent inhibition of renin activity) at 0.1 μM / inhibition at 0.01 µM / inhibition at 0.1 µM: 37° C., 30 mins, human recombinant renin; for Renin inhibition (percent inhibition of renin activity) at 0.1 μM / inhibition at 0.1 µM: 0.1 μM compound; for inhibition at 0.01 µM: read-out: Renin inhibition (percent inhibition of renin activity) at 0.01 μM; for inhibition at 0.1 µM: read-out: Renin inhibition (percent inhibition of renin activity) at 0.1 μM. As for the experimental part:
In-vitro protocol for the Inhibition of human recombinant renin by the compound of invention • Procedure: The enzymatic in vitro assay was performed in 96 well polypropylene plate (Nunc), using a modified Renin inhibitor screening assay protocol (Cayman, cat no: 10006270). The reaction system comprised assay buffer containing 50 mM Tris-HCL, pH=8.0 & 100 mM sodium chloride, human recombinant rennin (1:20 diluted with fixed activity), synthetic renin substrates (Cayman, cat no: 10006906) (14.4 μM) and different concentrations of renin inhibitors in DMSO in a total reaction system of 100 μl. The entire reaction mixture were incubated at 37° C. for 30 mins and the fluorescence was read at excitation wavelengths of 320-360 nm and emission wavelengths of 490-520 nm. Test compounds efficacy was determined by the percent inhibition of renin activity using Aliskiren (Tekturna) as a reference standard.
Following table represents measured IC50 values of the selected compounds for its inhibition of human recombinant renin.

SMILES strings stand for the structures. Counter-ions that a name gives are not always drawn.

With `Cc1cc(Cl)c(OCCOc2ccc(C(=O)N[C@H]3CCNCC3C(=O)N(Cc3ccc(C)c(C)c3)C3CC3)cc2)c(Cl)c1.Cl` (some centres unmarked) [Example 18], the “Renin inhibition (percent inhibition of renin activity) at 0.01 μM” value was determined as 20% and the “Renin inhibition (percent inhibition of renin activity) at 0.1 μM” value was 56%.

As to `Cc1cc(Cl)c(OCCOc2ccc(C(=O)N[C@H]3CCNCC3C(=O)N(Cc3ccccc3F)C3CC3)cc2)c(Cl)c1` (stereo partly drawn) [Example 29, (4S)—N-Cyclopropyl-4-(4-(2-(2,6-dichloro-4-methylphenoxy)ethoxy)benzamido)-N-(2-fluorobenzyl)piperidine-3-carboxamide hydrochloride], the inhibition at 0.01 µM turned out to be 11% and the inhibition at 0.1 µM is 65%.

Consider `Cc1cc(Cl)c(OCCOc2ccc(C(=O)NC3CCNCC3C(=O)N(Cc3ccc(Cl)cc3Cl)C3CC3)cc2)c(Cl)c1` (mixture of isomers) [Example 5, N-Cyclopropyl-4-(4-(2-(2,6-dichloro-4-methylphenoxy)ethoxy)benzamido)-N-(2,4-dichlorobenzyl)piperidine-3-carboxamide], for which the IC50 was 39 nM, the inhibition at 0.01 µM was 42% and the inhibition at 0.1 µM was found to be 81%.

As for `COc1ccc(CN(C(=O)C2CNCCC2NC(=O)c2ccc(OCCOc3c(Cl)cc(C)cc3Cl)cc2)C2CC2)cc1OC` (centres unmarked) [Example 8, N-Cyclopropyl-4-(4-(2-(2,6-dichloro-4-methylphenoxy)ethoxy)benzamido)-N-(3,4-dimethoxybenzyl)piperidine-3-carboxamide], the inhibition at 0.01 µM is less than 10% and the inhibition at 0.1 µM stood at 41%.

As to `COc1ccccc1COCCCOc1ccc(C(=O)N[C@H]2CCNCC2C(=O)N(Cc2cccc(C)c2C)C2CC2)cc1` (stereo partly drawn) [Example 28, (4S)—N-Cyclopropyl-N-(2,3-dimethylbenzyl)-4-(4-(3-((2-methoxybenzyl)oxy)propoxy)benzamido)piperidine-3-carboxamide hydrochloride], the inhibition at 0.01 µM stood at 60% and the inhibition at 0.1 µM worked out at 93%.

With `COc1cccc(CN(C(=O)C2CNCC[C@@H]2NC(=O)c2ccc(OCCOc3c(Cl)cc(C)cc3Cl)cc2)C2CC2)c1OC.Cl` (stereo partly drawn) [Example 15, (4S)—N-cyclopropyl-4-(4-(2-(2,6-dichloro-4-methylphenoxy)ethoxy)benzamido)-N-(2,3-dimethoxybenzyl)piperidine-3-carboxamide hydrochloride], the “Renin inhibition (percent inhibition of renin activity) at 0.01 μM” value (hydrochloride, 0.01 µM) stood at 13%. The “Renin inhibition (percent inhibition of renin activity) at 0.1 μM” value (hydrochloride, 0.1 µM) is recorded as 12%.

Turning to `COc1cccc(CN(C(=O)C2CNCC[C@@H]2NC(=O)c2ccc(OCCOc3c(Cl)cc(C)cc3Cl)cc2)C2CC2)c1OC.Cl` (stereo partly drawn) [Example 14, (4S)—N-cyclopropyl-4-(4-(2-(2,6-dichloro-4-methylphenoxy)ethoxy)benzamido)-N-(2,3-dimethoxybenzyl)piperidine-3-carboxamide hydrochloride], the inhibition at 0.01 µM came out at 19%. Further, the “Renin inhibition (percent inhibition of renin activity) at 0.1 μM” value (hydrochloride, 0.1 µM) is 66%.

For `COCCCOc1cccc(CN(C(=O)C2CNCCC2NC(=O)c2ccc(OCCOc3c(Cl)cccc3Cl)cc2)C2CC2)c1` (centres unmarked) [Example 3, N-Cyclopropyl-4-(4-(2-(2,6-dichlorophenoxy)ethoxy)benzamido)-N-(3-(3-methoxypropoxy)benzyl)piperidine-3-carboxamide], the inhibition at 0.01 µM is less than 10% and the inhibition at 0.1 µM worked out at 43%.

Turning to `COc1cccc(CN(C(=O)C2CNCC[C@@H]2NC(=O)c2ccc(OCCOc3c(Cl)cc(C)cc3Cl)cc2)C2CC2)c1C` (stereo partly drawn) [Example 37, (4S)—N-Cyclopropyl-4-(4-(2-(2,6-dichloro-4-methylphenoxy)ethoxy)benzamido)-N-(3-methoxy-2-methylbenzyl)piperidine-3-carboxamide hydrochloride], the IC50 came out at 17 nM, the inhibition at 0.01 µM is 24% and the inhibition at 0.1 µM came out at 81%.

On to `Cc1cc(C)cc(CN(C(=O)C2CNCCC2NC(=O)c2ccc(OCCOc3c(Cl)cc(C)cc3Cl)cc2)C2CC2)c1` (centres unmarked) [Example 10, N-Cyclopropyl-4-(4-(2-(2,6-dichloro-4-methylphenoxy)ethoxy)benzamido)-N-(3,5-dimethylbenzyl)piperidine-3-carboxamide], for which the inhibition at 0.01 µM was less than 10% and the inhibition at 0.1 µM amounted to 44%.

On to `COc1ccccc1COCCCOc1ccc(C(=O)N[C@H]2CCNCC2C(=O)N(Cc2cccc(C)c2C)C2CC2)cc1.Cl` (some centres unmarked) [Example 27], for which the “Renin inhibition (percent inhibition of renin activity) at 0.01 μM” value (hydrochloride) is recorded as “* (Inactive at tested concentration)”. Also, the “Renin inhibition (percent inhibition of renin activity) at 0.1 μM” value (hydrochloride, 0.1 µM) is on record as 38%.

As to `COc1ccccc1COCCCOc1ccc(C(=O)N[C@H]2CCNCC2C(=O)N(Cc2ccccc2OC)C2CC2)cc1` (stereo partly drawn) [Example 33, (4S)—N-Cyclopropyl-N-(2-methoxybenzyl)-4-(4-(3-((2-methoxybenzyl)oxy)propoxy)benzamido)piperidine-3-carboxamide hydrochloride], the inhibition at 0.01 µM is less than 10% and the inhibition at 0.1 µM was found to be 17%.

Turning to `O=C(NC1CCNCC1C(=O)N(Cc1ccc(Cl)cc1Cl)C1CC1)c1ccc(OCCOc2c(Cl)cccc2Cl)cc1` (centres unmarked) [Example 6, N-Cyclopropyl-N-(2,4-dichlorobenzyl)-4-(4-(2-(2,6-dichlorophenoxy)ethoxy)benzamido) piperidine-3-carboxamide], the “Renin inhibition (percent inhibition of renin activity) at 0.01 μM” value was “* (Inactive at tested concentration)” and the “Renin inhibition (percent inhibition of renin activity) at 0.1 μM” value was 40%.

As for `COc1ccccc1COCCOc1ccc(C(=O)N[C@H]2CCNCC2C(=O)N(Cc2cccc(C)c2C)C2CC2)cc1` (stereo partly drawn) [Example 16, (4S)—N-Cyclopropyl-N-(2,3-dimethylbenzyl)-4-(4-(2-((2-methoxybenzyl)oxy)ethoxy)benzamido)piperidine-3-carboxamide], the inhibition at 0.01 µM was found to be 11% and the inhibition at 0.1 µM was 52%.

Take `Cc1cc(Cl)c(OCCOc2ccc(C(=O)N[C@H]3CCNCC3C(=O)N(Cc3cccc(Cl)c3Cl)C3CC3)cc2)c(Cl)c1` (stereo partly drawn) [Example 35, (4S)—N-Cyclopropyl-4-(4-(2-(2,6-dichloro-4-methylphenoxy)ethoxy)benzamido)-N-(2,3-dichlorobenzyl)piperidine-3-carboxamide hydrochloride]: the inhibition at 0.01 µM was 60% and the inhibition at 0.1 µM amounted to 95%.

In the case of `Cc1cc(Cl)c(OCCOc2ccc(C(=O)NC3CCNCC3C(=O)N(Cc3ccc4ccccc4c3)C3CC3)cc2)c(Cl)c1` (centres unmarked) [Example 12, N-Cyclopropyl-4-(4-(2-(2,6-dichloro-4-methylphenoxy)ethoxy)benzamido)-N-(naphthalen-2-ylmethyl)piperidine-3-carboxamide], the IC50 was 64 nM, the inhibition at 0.01 µM is 43% and the inhibition at 0.1 µM stood at 89%.

Turning to `Cc1cc(Cl)c(OCCOc2ccc(C(=O)N[C@H]3CCNCC3C(=O)N(Cc3ccccc3Cl)C3CC3)cc2)c(Cl)c1` (stereo partly drawn) [Example 30, (4S)—N-(2-Chlorobenzyl)-N-cyclopropyl-4-(4-(2-(2,6-dichloro-4-methylphenoxy)ethoxy)benzamido)piperidine-3-carboxamide hydrochloride], the inhibition at 0.01 µM was less than 10% and the inhibition at 0.1 µM was determined as 87%.

As for `Cc1cc(Cl)c(OCCOc2ccc(C(=O)N[C@@H]3CCNCC3C(=O)N(Cc3ccc(C)c(C)c3)C3CC3)cc2)c(Cl)c1` (stereo partly drawn) [Example 22, (4R)—N-Cyclopropyl-4-(4-(2-(2,6-dichloro-4-methylphenoxy)ethoxy)benzamido)-N-(3,4-dimethylbenzyl)piperidine-3-carboxamide hydrochloride], the inhibition at 0.01 µM is less than 10% and the inhibition at 0.1 µM came to 40%.

Take `Cc1cc(Cl)c(OCCOc2ccc(C(=O)N[C@@H]3CCNCC3C(=O)N(Cc3cccc(C)c3C)C3CC3)cc2)c(Cl)c1` (stereo partly drawn) [Example 24, (4R)—N-Cyclopropyl-4-(4-(2-(2,6-dichloro-4-methylphenoxy)ethoxy)benzamido)-N-(2,3-dimethylbenzyl)piperidine-3-carboxamide hydrochloride]: the inhibition at 0.01 µM came out at 10% and the inhibition at 0.1 µM stood at 83%.

For the compound `Cc1cc(Cl)c(OCCOc2ccc(C(=O)N[C@H]3CCNCC3C(=O)N(Cc3cccc(C)c3C)C3CC3)cc2)c(Cl)c1` (stereo partly drawn) [Example 20, (4S)—N-Cyclopropyl-4-(4-(2-(2,6-dichloro-4-methylphenoxy)ethoxy)benzamido)-N-(2,3-dimethylbenzyl)piperidine-3-carboxamide hydrochloride], the IC50 amounted to 13 nM, the inhibition at 0.01 µM was determined as 48% and the inhibition at 0.1 µM was 91%.

Source of the values: patent US20120115907A1, “NOVEL COMPOUNDS AS INHIBITORS OF RENIN” (CADILA HEALTHCARE LIMITED, priority 2009, published 2012).
